Our source for the IC50 values is patent US6737431B2 (Bristol-Myers Squibb Company, priority 2002, dated 2004).

For one assay, the target named is T1, melatonin ML1a receptor (Homo sapiens, UniProt P48039).
T1 construct: expressed in transfected cells; membrane homogenates
The experiment in a line: Melatonergic receptor binding, 2-[125I]-iodomelatonin, ML1a. The settings on record: NIH-3T3 membranes, 0.1 nM 2-[125I]-iodomelatonin, 37° C. 1 hour. On the procedure: (§1) Melatonergic Receptor Binding Activity
(§2) (a) TME=50 mM Tris buffer containing 12.5 mM MgCl2, and 2 mM EDTA, pH 7.4 at 37° C., with concentrated HCl.
(§3) (b) Wash buffer: 20 mM Tris base containing 2 mM MgCl2, pH 7.4 at room temperature.
(§4) (c) 10^−4 M melatonin (10^−5 M final concentration).
(d) 2-[^125I]-iodomelatonin ML1a, 0.1 nM final concentration.
(§5) 2. Membrane Homogenates: The melatonin ML1a and ML1b receptors cDNA were individually subcloned into pcDNA3 and introduced into NIH-3T3 cells using Lipofectamine. Transformed NIH-3T3 cells resistant to geneticin (G-418) were isolated, and single colonies expressing high levels of 2[^125I]-iodomelatonin binding were isolated. Cells are maintained in DMEM supplemented with 10% calf serum and G-418 (0.5 g/liter). Cells are grown to confluency in T-175 flasks, scraped using Hank's balanced salt solution, and frozen at −80° C. For preparing membrane homogenates, pellets are thawed on ice, and re-suspended in TME buffer in the presence of 10 μg/ml aprotinin and leupeptin, and 100 μM phenylmethylsulfonylfluoride. The cells were then homogenized using a dounce homogenizer, and centrifuged. The resulting pellet was re-suspended with dounce homogenizer in TME (supplemented with the above protease inhibitors) and frozen. On the day of assay, a small aliquot was thawed on ice and re-suspended in the ice cold TME (1:50-1:100 v/v) and held on ice until assayed.
(§6) 3. Incubation: 37° C. for 1 hour. Reaction is terminated by filtration. Filters were washed 3 times.
(§7) 4. References: Reppert, S. M. et al., Neuron, 13, p. 1177-1185 (1994); and Reppert, S. M. et al., Proc. Natl. Acad. Sci. USA, 92, p. 8734-8738 (1995).
(§8) The compounds of the present invention have affinity for receptors of the endogenous pineal hormone, melatonin, as determined in receptor binding assays described above in Tables I to III for the ML1a and ML1b (human) receptors. Melatonin is involved in the regulation of a variety of biological rhythms and exerts its biological effects via interaction with specific receptors. There is evidence that administration of melatonin agonists are of clinical utility in the treatment of various conditions regulated by melatonin activity. Such conditions include depression, jet-lag, work-shift syndrome, sleep disorders, glaucoma, some disorders associated with reproduction, cancer benign prostatic hyperplasia, immune disorders, and neuroendocrine disorders.

For the next assay, the target named is T2, melatonin ML1b receptor (Homo sapiens, UniProt P49286).
T2 construct: expressed in transfected cells; membrane homogenates
T2 sequence (P49286 1-362): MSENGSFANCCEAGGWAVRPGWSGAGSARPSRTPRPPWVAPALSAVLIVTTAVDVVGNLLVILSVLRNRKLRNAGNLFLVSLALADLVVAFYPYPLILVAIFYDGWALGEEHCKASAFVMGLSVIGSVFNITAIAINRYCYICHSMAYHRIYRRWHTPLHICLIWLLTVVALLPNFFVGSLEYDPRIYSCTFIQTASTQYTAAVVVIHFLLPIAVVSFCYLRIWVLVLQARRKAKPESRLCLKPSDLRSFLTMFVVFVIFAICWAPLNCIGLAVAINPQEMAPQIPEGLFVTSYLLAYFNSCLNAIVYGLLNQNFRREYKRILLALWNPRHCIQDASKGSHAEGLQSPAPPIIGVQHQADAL
Briefly: Melatonergic receptor binding, 2-[125I]-iodomelatonin, ML1b. The settings on record: NIH-3T3 membranes, 0.2 nM 2-[125I]-iodomelatonin, 37° C. 1 hour. As for the experimental part:
as §1, §2, §3, §4
(e) 2-[^125I]-iodomelatonin ML1b, 0.2 nM final concentration.
as §5, §6, §7, §8

T1 sequence (P48039 whole entry): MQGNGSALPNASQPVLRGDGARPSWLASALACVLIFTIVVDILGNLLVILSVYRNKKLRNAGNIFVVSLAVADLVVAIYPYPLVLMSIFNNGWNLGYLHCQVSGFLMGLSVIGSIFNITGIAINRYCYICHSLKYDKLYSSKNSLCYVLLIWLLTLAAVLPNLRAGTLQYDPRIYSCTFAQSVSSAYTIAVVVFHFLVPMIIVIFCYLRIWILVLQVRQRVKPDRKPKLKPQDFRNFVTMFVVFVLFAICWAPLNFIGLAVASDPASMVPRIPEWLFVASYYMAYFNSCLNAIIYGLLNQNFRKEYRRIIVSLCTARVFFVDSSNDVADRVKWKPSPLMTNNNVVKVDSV

As a reminder, the IC50 is the point on the concentration scale where inhibition reaches its midpoint. A lower IC50 goes with higher potency. In the case of `CCCc1nc2cccc([C@@H]3C[C@H]3CNC(=O)NCC)c2o1` [Example 92, N-{[(1R,2R)-2-(2-Propylbenzoxazol-7-yl)cyclopropyl]methyl}(ethylamino)carboxamide], the IC50 at melatonin ML1a receptor (Table III) and on melatonin ML1b receptor (Table III) was less than 10 nM in each case.
Regarding `CCNC(=O)NCCCc1cccc2nc(CCCCc3ccccc3)oc12` [Example 30, (Ethylamino)-N-{3-[2-(4-phenylbutyl)benzoxazol-7-yl]propyl}carboxamide], the values for the IC50 at melatonin ML1a receptor (Table I) and at melatonin ML1b receptor (Table I) were less than 10 nM and 10 to 250 nM, respectively.
With `CCc1nc2cc(Br)cc(CCCNC(=O)C3CC3)c2o1` [Example 70, N-[3-(5-Bromo-2-ethylbenzoxazol-7-yl)propyl]cyclopropylcarboxamide], the IC50 on melatonin ML1a receptor (Table II) is greater than 250 nM; on melatonin ML1b receptor (Table II) it was 10 to 250 nM.
Consider `C=Cc1cc(CCCNC(=O)c2ccccc2)c2oc(CC)nc2c1` [Example 71, N-[3-(2-Ethyl-5-vinylbenzoxazol-7-yl)propyl]benzamide], for which the IC50 on melatonin ML1a receptor (Table II) and at melatonin ML1b receptor (Table II) was greater than 250 nM in each case.
Take `CCC(=O)NCCCc1cccc2nc(CC)oc12` [Example 8, N-[3-(2-Ethylbenzoxazol-7-yl)propyl]propanamide]: the IC50 on melatonin ML1a receptor (Table I) and on melatonin ML1b receptor (Table I) was less than 10 nM each time.
Take `CCCc1nc2cccc([C@@H]3C[C@H]3CNC(=O)C3CC3)c2o1` [Example 90, N-{[(1R,2R)-2-(2-Propylbenzoxazol-7-yl)cyclopropyl]methyl}cyclopropylcarboxamide]: the half-inhibitory concentration (IC50) on melatonin ML1a receptor (Table III) and at melatonin ML1b receptor (Table III) was less than 10 nM each time.
`CCCC(=O)NCCCc1cccc2nc(C(C)C)oc12` [Example 36, N-{3-[2-(Methylethyl)benzoxazol-7-yl]propyl}butanamide]: the IC50 on melatonin ML1a receptor (Table I) and on melatonin ML1b receptor (Table I) was 10 to 250 nM throughout.
With `CCCc1nc2cccc([C@@H]3C[C@H]3CNC(C)=O)c2o1` [Example 82, N-{[(1R,2R)-2-(2-Propylbenzoxazol-7-yl)cyclopropyl]methyl}acetamide], the IC50 on melatonin ML1a receptor (Table III) and on melatonin ML1b receptor (Table III) was less than 10 nM in each case.
Turning to `CCCC(=O)NC[C@@H]1C[C@H]1c1cccc2nc(CCC)oc12` [Example 86, N-{[(1R,2R)-2-(2-Propylbenzoxazol-7-yl)cyclopropyl]methyl}butanamide], the IC50 at melatonin ML1a receptor (Table III) and on melatonin ML1b receptor (Table III) was less than 10 nM throughout.
Regarding `CCCc1nc2cccc(CCCNC(=O)C(C)C)c2o1` [Example 16, 2-Methyl-N-[3-(2-propylbenzoxazol-7-yl)propyl]propanamide], the IC50 at melatonin ML1a receptor (Table I) and at melatonin ML1b receptor (Table I) was 10 to 250 nM in each case.
`CCc1nc2cc(-c3ccc(F)cc3)cc(CCCNC(=O)c3ccccc3)c2o1` [Example 59, N-{3-[2-Ethyl-5-(4-fluorophenyl)benzoxazol-7-yl]propyl}benzamide]: the IC50 at melatonin ML1a receptor (Table II) and on melatonin ML1b receptor (Table II) was greater than 250 nM in each case.
For `CCC(=O)NC[C@@H]1C[C@H]1c1cccc2nc(C(C)C)oc12` [Example 85, N-({(1R,2R)-2-[2-(Methylethyl)benzoxazol-7-yl]cyclopropyl}methyl)propanamide], the IC50 at melatonin ML1a receptor (Table III) and on melatonin ML1b receptor (Table III) was less than 10 nM each time.
Regarding `CCc1nc2cc(-c3ccc(F)cc3)cc(CCCNC(C)=O)c2o1` [Example 58, N-[3-(2-Ethyl-5-(4-fluorophenyl)benzoxazol-7-yl)propyl]acetamide], the IC50 on melatonin ML1a receptor (Table II) and at melatonin ML1b receptor (Table II) was 10 to 250 nM in each case.
Turning to `CCc1nc2cccc([C@@H]3C[C@H]3CNC(=O)C3CC3)c2o1` [Example 80, N-{[(1R,2R)-2-(2-Ethylbenzoxazol-7-yl)cyclopropyl]methyl}cyclopropylcarboxamide], the IC50 at melatonin ML1a receptor (Table III) and at melatonin ML1b receptor (Table III) was less than 10 nM throughout.
As to `CCc1nc2cccc([C@@H]3C[C@H]3CNC(=O)C(C)C)c2o1` [Example 79, N-{[(1R,2R)-2-(2-Ethylbenzoxazol-7-yl)cyclopropyl]methyl}-2-methylpropanamide], the IC50 at melatonin ML1a receptor (Table III) and on melatonin ML1b receptor (Table III) was less than 10 nM throughout.
Regarding `CCc1nc2cc(-c3ccccc3)cc(CCCNC(C)=O)c2o1` [Example 65, N-[3-(2-Ethyl-5-phenylbenzoxazol-7-yl)propyl]acetamide], the IC50 was greater than 250 nM on melatonin ML1a receptor (Table II) and 10 to 250 nM at melatonin ML1b receptor (Table II).
For `CCc1nc2ccc(-c3ccccc3)c(CCCNC(C)=O)c2o1` [Example 55, N-[3-(2-Ethyl-6-phenylbenzoxazol-7-yl)propyl]acetamide], in that order: less than 10 nM and less than 10 nM.
For `CCc1nc2cc(-c3ccc(OC)cc3)cc(CCCNC(C)=O)c2o1` [Example 62, N-{3-[2-Ethyl-5-(4-methoxyphenyl)benzoxazol-7-yl]propyl}acetamide], in that order: 10 to 250 nM and 10 to 250 nM.
As to `O=C(NCCCc1cccc2nc(CCCCc3ccccc3)oc12)C1CC1` [Example 29, Cyclopropyl-N-{3-[2-(4-phenylbutyl)benzoxazol-7-yl]propyl}carboxamide], the IC50 at melatonin ML1a receptor (Table I) was less than 10 nM; at melatonin ML1b receptor (Table I), 10 to 250 nM.
Regarding `CCc1nc2ccc(C)c(CCCNC(=O)C3CC3)c2o1` [Example 46, Cyclopropyl-N-[3-(2-ethyl-6-methylbenzoxazol-7-yl)propyl]carboxamide], the IC50 at melatonin ML1a receptor (Table II) and at melatonin ML1b receptor (Table II) was less than 10 nM throughout.
Take “N-({(1R,2R)-2-[2-(5-Phenylbutyl)benzoxazol-7-yl]cyclopropyl}methyl)-2-methylpropanamide [Example 97]”: the IC50 on melatonin ML1a receptor (Table III) and on melatonin ML1b receptor (Table III) was less than 10 nM each time.
Take `CCc1nc2ccc(Br)c(CCCNC(C)=O)c2o1` [Example 42, N-Acetyl-7-(3-aminopropyl)-6-bromo-2-ethylbenzoxazole]: the figures for the IC50 at melatonin ML1a receptor (Table II) and on melatonin ML1b receptor (Table II) were 10 to 250 nM and less than 10 nM, respectively.
In the case of `CCCc1nc2cccc(CCCNC(=O)NCC)c2o1` [Example 18, (Ethylamino)-N-[3-(2-propylbenzoxazol-7-yl)propyl]carboxamide], the IC50 was greater than 250 nM at melatonin ML1a receptor (Table I) and 10 to 250 nM at melatonin ML1b receptor (Table I).
For `C=Cc1ccc2nc(CC)oc2c1CCCNC(=O)OC(C)(C)C` [Example 41, N-t-Butoxycarbonyl 7-(3-aminopropyl)-6-vinyl-2-ethylbenzoxazole], the IC50 on melatonin ML1a receptor (Table II) and at melatonin ML1b receptor (Table II) was greater than 250 nM throughout.
`CC(C)c1nc2cccc(CCCNC(=O)C3CC3)c2o1` [Example 38, Cyclopropyl-N-{3-[2-(methylethyl)benzoxazol-7-yl]propyl}carboxamide]: the concentration for half-maximal inhibition (IC50) at melatonin ML1a receptor (Table I) was 10 to 250 nM; on melatonin ML1b receptor (Table I) it was greater than 250 nM.
Turning to `CCNC(=O)NC[C@@H]1C[C@H]1c1cccc2nc(C(C)C)oc12` [Example 93, N-({(1R,2R)-2-[2-(Methylethyl)benzoxazol-7-yl]cyclopropyl}methyl)(ethylamino)carboxamide], the IC50 on melatonin ML1a receptor (Table III) and on melatonin ML1b receptor (Table III) was 10 to 250 nM in each case.
For `CCCC(=O)NC[C@@H]1C[C@H]1c1cccc2nc(CC)oc12` [Example 78, N-{[(1R,2R)-2-(2-Ethylbenzoxazol-7-yl)cyclopropyl]methyl}butanamide], the IC50 on melatonin ML1a receptor (Table III) and on melatonin ML1b receptor (Table III) was less than 10 nM each time.
In the case of `CCC(=O)NC[C@@H]1C[C@H]1c1cccc2nc(CC)oc12` [Example 77, N-{[(1R,2R)-2-(2-Ethylbenzoxazol-7-yl)cyclopropyl]methyl}propanamide], the IC50 at melatonin ML1a receptor (Table III) and at melatonin ML1b receptor (Table III) was less than 10 nM throughout.
As for `CCc1nc2cc(Br)cc(CCCNC(C)=O)c2o1` [Example 68, N-[3-(5-Bromo-2-ethylbenzoxazol-7-yl)propyl]acetamide], the IC50 at melatonin ML1a receptor (Table II) was greater than 250 nM; on melatonin ML1b receptor (Table II), 10 to 250 nM.
